In the NIST ThermoML archive (doi:10.1021/acs.jced.8b00614):
± gives the expanded uncertainty stated by the source.

Key:
[1] = refractive index (Na D-line) (dimensionless); details: 298.2 K; 101.33 kPa; Liquid; Standard Abbe refractometry
[2] = Boiling temperature at pressure P; details: Liquid, Ebulliometric method (Recirculating still)
[3] = Liquid; for mass density: 298.2 K, 101.33 kPa, Vibrating tube method; for vapor or sublimation pressure: Chromatography

Row | SMILES | refractive index [1] | Boiling temperature at pressure P ([2]; 5 kPa) [°C] | Boiling temperature at pressure P ([2]; 10 kPa) [°C] | Boiling temperature at pressure P ([2]; 20 kPa) [°C] | Boiling temperature at pressure P ([2]; 30 kPa) [°C] | Boiling temperature at pressure P ([2]; 40 kPa) [°C] | Boiling temperature at pressure P ([2]; 50 kPa) [°C] | Boiling temperature at pressure P ([2]; 60 kPa) [°C] | Boiling temperature at pressure P ([2]; 70 kPa) [°C] | Boiling temperature at pressure P ([2]; 90 kPa) [°C] | Boiling temperature at pressure P ([2]; 99.7 kPa) [°C] | mass density [3] [kg/m3] | vapor or sublimation pressure ([3]; 307.2 K) [kPa] | vapor or sublimation pressure ([3]; 317.2 K) [kPa] | vapor or sublimation pressure ([3]; 327.2 K) [kPa] | vapor or sublimation pressure ([3]; 350.2 K) [kPa] | vapor or sublimation pressure ([3]; 360.2 K) [kPa] | vapor or sublimation pressure ([3]; 370.2 K) [kPa] | Boiling temperature at pressure P ([2]; 79.9 kPa) [°C] | also measured
1 | CC(C)CC(C)(C)C [2,2,4-trimethylpentane] | 1.3891 ± 0.0036 | 19.4 ± 0.4 | 34.0 ± 0.3 | 50.7 ± 0.2 | 61.4 ± 0.2 | 69.5 ± 0.2 | 76.1 ± 0.1 | 81.8 ± 0.1 | 86.7 ± 0.1 | 95.2 ± 0.1 | 98.8 ± 0.1 | 687.73 ± 3.2 | 10 ± 0.8 | 15.3 ± 1.2 | 22.8 ± 1.8 | 51.6 ± 4 | 70.7 ± 5.5 | 95 ± 7.4 | – | Boiling temperature at pressure P ([2]; 80 kPa): 91.1 ± 0.1 °C
2 | COC(C)(C)C [2-methoxy-2-methylpropane] | 1.36632 ± 0.0036 | – | – | 13.0 ± 0.2 | 22.2 ± 0.2 | 29.5 ± 0.1 | 35.2 ± 0.1 | 40.2 ± 0.1 | 44.5 ± 0.1 | 51.8 ± 1.5 | 55.0 ± 1.5 | 735.38 ± 3.2 | 47.7 ± 3.7 | 68.9 ± 5.3 | 97.1 ± 7.5 | – | – | – | 48.4 ± 0.1 | –
3 | CCCCCO [pentan-1-ol] | 1.40764 ± 0.0036 | 68.2 ± 0.6 | 81.4 ± 0.3 | 96 ± 0.2 | 105.2 ± 0.2 | 112.4 ± 0.1 | 118.2 ± 0.1 | 123.1 ± 0.1 | 127.2 ± 0.1 | 134.6 ± 1.5 | 137.7 ± 1.5 | 810.9 ± 3.2 | – | 1.1 ± 0.1 | 2.1 ± 0.2 | 8 ± 0.6 | 13.3 ± 1 | 21 ± 1.6 | 131.1 ± 0.1 | Boiling temperature at pressure P ([2]; 1.1 kPa): 44.2 ± 0.9 °C
